Measurements: ChEMBL document CHEMBL4342401, “Cathepsin B: Active site mapping with peptidic substrates and inhibitors” (Bioorg Med Chem, 2019)
pIC50, pKi: −log10 of the molar value. *1 amine or outer side, *2 acyl side, *3 side chain or, on linkers, in order; H or OH if unused. Where a SMILES comes first, the peptide text is derived from it. [ ]: non-standard residue; d: D form. The star is where a group is joined. X1 = CC(C)C[C@H](N[*:1])C(=O)NC(=O)[C@H]1O[C@@H]1C(=O)[*:2]; N(6-aminohexyl)Gly = O=C(CN(CCCCCCN[*:3])[*:1])[*:2]; Biotin = O=C1N[C@H]2[C@H](CS[C@H]2CCCCC(=O)*)N1

Columns and labels:
Cathepsin B [1] = target: T1, Cathepsin B (Homo sapiens, UniProt P07858); assay: Inhibition of human cathepsin B assessed as ratio of Kinact to Ki using Z-Phe-Arg-NH-Mec as substrate incubated for 15 to 90 mins by fluorometric method
Cathepsin B [2] = target: T1, Cathepsin B; assay: Inhibition of recombinant human cathepsin B expressed in baculovirus expression system using Z-Arg-Arg-AMC as substrate incubated for 20 mins by fluorescence based assay
Cathepsin B (Bos taurus) [3] = target: Cathepsin B (Bos taurus) (UniProt P07688); assay: Inhibition of bovine cathepsin B assessed as ratio of Kinact to Ki using Z-Phe-Arg-pNA as substrate by UV/Vis spectrophotometric method
Cathepsin B [4] = target: T1, Cathepsin B; assay: Inhibition of human liver cathepsin B using Z-Arg-Arg-AMC as substrate preincubated for 15 mins followed by substrate addition and measured after 30 mins by fluorometric method
Cathepsin B (Bos taurus) [5] = target: Cathepsin B (Bos taurus) (UniProt P07688); assay: Inhibition of bovine spleen cathepsin B assessed as ratio of Kinact to Ki by spectrophotometeric method
Cathepsin B [6] = target: T1, Cathepsin B; assay: Inhibition of human liver cathepsin B using Z-Phe-Arg-AMC as substrate incubated for 30 mins by fluorescence based assay
Cathepsin B [7] = target: T1, Cathepsin B; assay: Inhibition of cathepsin B (unknown origin) assessed as reduction in 7-amino-4-methylcoumarin formation using Z-Arg-Arg-MCA as substrate preincubated for 3 mins followed by substrate addition and measured after 10 mins by fluorescence spectrometric method

A Ratio (Cathepsin B [1]) of 44400 M⁻¹ s⁻¹ was found for CCOC(=O)[C@H]1O[C@@H]1C(=O)N[C@@H](CC(C)C)C(=O)N1CCC[C@H]1C(=O)O in this work.

A pIC50 (Cathepsin B [2]) of over 8.00 was found for Cc1cccc(C[C@H](NC(=O)c2ccccc2)C(=O)N[C@H](C#N)COCc2cccc(C(=O)O)c2)c1 in this work.

A Ratio (Cathepsin B [1]) of 152000 M⁻¹ s⁻¹ was found for CCCNC(=O)[C@H]1O[C@@H]1C(=O)N[C@@H](CC(C)C)C(=O)N1CCC[C@H]1C(=O)O in this work.

A Ratio (Cathepsin B (Bos taurus) [3]) of 2700 M⁻¹ s⁻¹ was found for CC(=O)N[C@@H](Cc1ccccc1)C(=O)NCC(=O)COC(=O)[C@H](CC(C)C)NC(=O)OCc1ccccc1 in this work.

A Ratio (Cathepsin B [1]) of 1.52e+06 M⁻¹ s⁻¹ was found for COC(=O)CNC(=O)CNC(=O)[C@H](CC(C)C)NC(=O)[C@H]1O[C@@H]1C(=O)N[C@@H](CC(C)C)C(=O)N1CCC[C@H]1C(=O)O in this work.

A Ratio (Cathepsin B [1]) of 567000 M⁻¹ s⁻¹ was found for CCOC(=O)[C@@H]1O[C@H]1C(=O)N[C@@H](CC(C)C)C(=O)N1CCC[C@H]1C(=O)O in this work.

A pIC50 (Cathepsin B [2]) of over 8.00 was found for CCCCC(=O)N[C@@H](Cc1cccc(C)c1)C(=O)N[C@H](C#N)COCc1cccc(C(=O)O)c1 in this work.

A pIC50 (Cathepsin B [4]) of 6.52 was found for CN1CCN(C(=O)N[C@@H](Cc2ccccc2)C(=O)N[C@H](/C=C/S(=O)(=O)c2ccccc2)c2ccc(-c3ccccc3)cc2)CC1 in this work.

A Ratio (Cathepsin B (Bos taurus) [5]) of 12300 M⁻¹ s⁻¹ was found for CC(C)CCNC(=O)[C@H](Cc1ccccc1)NC(=O)[C@H]1O[C@@H]1C(=O)O in this work.

A pIC50 (Cathepsin B [2]) of over 8.00 was found for Cc1cccc(C[C@H](NC(=O)c2ccc(Cl)cc2F)C(=O)N[C@H](C#N)COCc2cccc(C(=O)O)c2)c1 in this work.

A Ratio (Cathepsin B (Bos taurus) [3]) of 300 M⁻¹ s⁻¹ was found for CC(=O)N[C@@H](Cc1ccccc1)C(=O)NCC(=O)COC(=O)[C@@H](CC(C)C)NC(=O)OCc1ccccc1 in this work.

A pKi (Cathepsin B [6]) of 8.70 was found for CC(C)CC(NC(=O)c1ccc(Br)cc1)C(=O)N(C)N(C)C#N (racemic) in this work.

A pKi (Cathepsin B [6]) of 8.30 was found for CC(C)CC(NC(=O)c1cccc(-c2ccncc2)c1)C(=O)N(C)N(C)C#N (racemic) in this work.

A Ratio (Cathepsin B [1]) of 29400 M⁻¹ s⁻¹ was found for CCCNC(=O)[C@@H]1O[C@H]1C(=O)N[C@@H](CC(C)C)C(=O)N1CCC[C@H]1C(=O)O in this work.

A pKi (Cathepsin B [6]) of 9.16 was found for CC(C)CC(NC(=O)c1ccc(-c2ccc(-c3ccccc3)cc2)cc1)C(=O)N(C)N(C)C#N (racemic) in this work.

A Ratio (Cathepsin B (Bos taurus) [5]) of 105000 M⁻¹ s⁻¹ was found for CC(C)CCNC(=O)[C@H](Cc1cc(I)c(O)c(I)c1)NC(=O)[C@H]1O[C@@H]1C(=O)O in this work.

A Ratio (Cathepsin B [1]) of 1.6e+06 M⁻¹ s⁻¹ was found for CC(C)C[C@H](NC(=O)CNC(=O)CNCCCCCCNC(=O)CCCC[C@@H]1SC[C@@H]2NC(=O)N[C@@H]21)C(=O)NC(=O)[C@H]1O[C@@H]1C(=O)N[C@@H](CC(C)C)C(=O)N1CCC[C@H]1C(=O)O (H-[N(6-aminohexyl)Gly](Biotin)G[X1]LP-OH) in this work.

A pIC50 (Cathepsin B [7]) of 8.64 was found for CCOC(=O)[C@H]1O[C@@H]1C(=O)N[C@H](C(=O)N1CCC[C@H]1C(=O)O)[C@@H](C)CC in this work.
